Data on 28 molecules can be found in patent US8741934B2, “Inhibitors of ion channels” (Pfizer Limited, priority 2007, dated 2014).

Some results are limits rather than exact numbers.

The experiment deals with T1, hSCN3A sodium channels (Homo sapiens, UniProt Q9NY46).
T1 construct: expressed in transfected cells
The experiment can be described thus: hSCN3A electrophysiology, whole-cell patch-clamp or PatchXpress 7000, estimated IC-50 (Table B). The class given is cell-based. The note with it: estimated IC-50; hSCN3A cells, whole-cell patch-clamp or PatchXpress 7000; read-out: SCN3A EIC-50. The procedure, abridged:
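A 20 msec test pulse to 0 mV followed an 8 sec conditioning prepulse at each cell's measured V1/2. Room-temperature (22-24° C) recordings on HEK cells stably expressing the channel, conventional or PatchXpress.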

T1 sequence (Q9NY46 whole entry): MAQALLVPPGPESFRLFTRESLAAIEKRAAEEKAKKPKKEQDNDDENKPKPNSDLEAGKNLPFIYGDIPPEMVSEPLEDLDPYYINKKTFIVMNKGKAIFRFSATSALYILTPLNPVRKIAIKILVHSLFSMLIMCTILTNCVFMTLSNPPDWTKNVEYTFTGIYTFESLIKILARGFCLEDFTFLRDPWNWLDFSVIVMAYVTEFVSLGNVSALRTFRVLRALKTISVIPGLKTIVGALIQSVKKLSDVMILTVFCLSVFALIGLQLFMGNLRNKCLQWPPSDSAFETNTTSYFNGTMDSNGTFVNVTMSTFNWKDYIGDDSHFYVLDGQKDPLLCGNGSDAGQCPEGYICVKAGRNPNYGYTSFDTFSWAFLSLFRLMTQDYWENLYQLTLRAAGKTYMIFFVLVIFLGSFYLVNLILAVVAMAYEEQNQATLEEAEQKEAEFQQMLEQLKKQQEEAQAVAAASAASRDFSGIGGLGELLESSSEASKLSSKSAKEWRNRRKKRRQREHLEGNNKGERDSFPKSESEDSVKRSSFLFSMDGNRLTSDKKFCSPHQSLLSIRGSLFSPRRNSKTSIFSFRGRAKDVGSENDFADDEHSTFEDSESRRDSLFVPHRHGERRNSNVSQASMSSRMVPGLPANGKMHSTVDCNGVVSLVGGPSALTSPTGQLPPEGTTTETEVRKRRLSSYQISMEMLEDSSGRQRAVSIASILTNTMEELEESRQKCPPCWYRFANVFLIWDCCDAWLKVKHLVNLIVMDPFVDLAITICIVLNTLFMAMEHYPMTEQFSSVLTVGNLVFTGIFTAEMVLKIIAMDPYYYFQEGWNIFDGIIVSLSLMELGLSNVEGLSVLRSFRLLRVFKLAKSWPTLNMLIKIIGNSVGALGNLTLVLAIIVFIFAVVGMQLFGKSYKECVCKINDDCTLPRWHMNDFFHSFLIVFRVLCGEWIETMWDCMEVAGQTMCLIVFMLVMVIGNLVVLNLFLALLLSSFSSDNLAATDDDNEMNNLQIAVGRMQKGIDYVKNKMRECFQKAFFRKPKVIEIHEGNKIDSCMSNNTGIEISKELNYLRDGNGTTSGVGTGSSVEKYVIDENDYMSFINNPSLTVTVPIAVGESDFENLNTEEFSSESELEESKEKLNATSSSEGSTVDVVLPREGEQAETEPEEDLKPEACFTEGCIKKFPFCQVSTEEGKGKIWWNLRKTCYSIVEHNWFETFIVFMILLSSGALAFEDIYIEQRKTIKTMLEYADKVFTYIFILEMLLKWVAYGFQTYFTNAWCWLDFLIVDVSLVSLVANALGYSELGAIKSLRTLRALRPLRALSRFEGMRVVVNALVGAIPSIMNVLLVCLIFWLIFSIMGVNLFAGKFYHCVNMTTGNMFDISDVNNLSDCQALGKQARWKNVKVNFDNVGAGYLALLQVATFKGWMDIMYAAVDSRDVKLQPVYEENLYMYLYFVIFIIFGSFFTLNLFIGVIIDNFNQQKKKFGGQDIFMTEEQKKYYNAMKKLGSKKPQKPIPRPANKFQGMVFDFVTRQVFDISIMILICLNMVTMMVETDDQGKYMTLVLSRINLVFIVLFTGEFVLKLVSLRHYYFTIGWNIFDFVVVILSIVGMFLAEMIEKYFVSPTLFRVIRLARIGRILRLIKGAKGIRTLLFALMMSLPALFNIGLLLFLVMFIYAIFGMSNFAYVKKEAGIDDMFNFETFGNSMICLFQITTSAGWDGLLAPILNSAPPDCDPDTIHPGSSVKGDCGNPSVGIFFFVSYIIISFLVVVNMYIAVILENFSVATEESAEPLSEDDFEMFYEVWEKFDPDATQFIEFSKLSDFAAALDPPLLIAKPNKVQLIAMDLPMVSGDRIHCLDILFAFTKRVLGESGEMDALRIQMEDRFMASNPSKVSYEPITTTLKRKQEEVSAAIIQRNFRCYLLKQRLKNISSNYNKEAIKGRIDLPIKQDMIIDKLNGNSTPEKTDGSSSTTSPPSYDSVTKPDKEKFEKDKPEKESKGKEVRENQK

Turning to `O=C(NCc1ccc(Cl)c(Cl)c1)c1ccc(S(=O)(=O)Nc2ncc(Cl)s2)cc1` [Example 35, 4-{[(5-Chloro-1,3-thiazol-2-yl)amino]sulfonyl}-N-(3,4-dichlorobenzyl)benzamide], the IC50 was 40 nM.

For `O=C(NCc1ccc(C(F)(F)F)c(F)c1)c1ccc(S(=O)(=O)Nc2ncns2)cc1` [Example 323, N-[3-fluoro-4-(trifluoromethyl)benzyl]-4-[(1,2,4-thiadiazol-5-ylamino)sulfonyl]benzamide], the IC50 is 190 nM.

With `O=C(NCc1cccc(C(F)(F)F)c1)c1ccc(S(=O)(=O)Nc2ncc(Cl)s2)cc1F` [Example 354, 4-{[(5-Chloro-1,3-thiazol-2-yl)amino]sulfonyl}-2-fluoro-N-[3-(trifluoromethyl)benzyl]benzamide], the IC50 was 210 nM.

As for `O=C(NCc1ccc(C(F)(F)F)c(F)c1)c1ccc(S(=O)(=O)Nc2ncc(Cl)s2)cc1` [Example 31, 4-{[(5-Chloro-1,3-thiazol-2-yl)amino]sulfonyl}-N-[3-fluoro-4-(trifluoromethyl)benzyl]benzamide], the IC50 was 70 nM.

Consider `O=C(NCc1cccc(OC(F)(F)F)c1)c1ccc(S(=O)(=O)Nc2nccs2)cc1F` [Example 335, 2-Fluoro-4-[(1,3-thiazol-2-ylamino)sulfonyl]-N-[3-(trifluoromethoxy)benzyl]benzamide], for which the IC50 was 200 nM.

In the case of `Cc1cc(NC(=O)c2ccc(S(=O)(=O)Nc3nccs3)cc2)cnc1C` [Example 175, N-(5,6-dimethylpyridin-3-yl)-4-[(1,3-thiazol-2-ylamino)sulfonyl]benzamide], the IC50 is 4050 nM.

In the case of `COc1ccccc1C1CN(C(=O)c2ccc(S(=O)(=O)Nc3nccs3)cc2)CCO1` (stereo not shown) [Example 232, 4-{[2-(2-Methoxyphenyl)morpholin-4-yl]carbonyl}-N-1,3-thiazol-2-yl-benzenesulfonamide], the IC50 is 3420 nM.

Regarding `O=C(NCc1ccc(F)c(F)c1)c1ccc(S(=O)(=O)Nc2nccs2)c(F)c1` [Example 298, N-(3,4-difluorobenzyl)-3-fluoro-4-[(1,3-thiazol-2-ylamino)sulfonyl]benzamide], the IC50 is 160 nM.

Consider `O=C(NCc1ccc(C(F)(F)F)cc1)c1ccc(S(=O)(=O)Nc2cnoc2)cc1` [Example 23, 4-[(Isoxazol-4-ylamino)sulfonyl]-N-[4-(trifluoromethyl)benzyl]benzamide], for which the IC50 is 23300 nM.

For the molecule `O=C(NCc1ccc(Cl)c(F)c1)c1ccc(S(=O)(=O)Nc2nccs2)cc1F` [Example 334, N-(4-chloro-3-fluorobenzyl)-2-fluoro-4-[(1,3-thiazol-2-ylamino)sulfonyl] benzamide], the IC50 was 340 nM.

Regarding `O=C(c1ccc(S(=O)(=O)Nc2nccs2)cc1)N1CCSCC1c1ccccc1Cl` (stereo not shown) [Example 46, 4-{[3-(2-Chlorophenyl)thiomorpholin-4-yl]carbonyl}-N-1,3-thiazol-2-ylbenzenesulfonamide], the IC50 was 1550 nM.

On to `O=C(NCc1ccc(C(F)(F)F)c(Cl)c1)c1ccc(S(=O)(=O)Nc2nccs2)c(F)c1` [Example 306, N-[3-chloro-4-(trifluoromethyl)benzyl]-3-fluoro-4-[(1,3-thiazol-2-ylamino)sulfonyl]benzamide], for which the IC50 is 40 nM.

Regarding `O=C(NCCc1ccc(C(F)(F)F)cc1)c1ccc(S(=O)(=O)Nc2nccs2)cc1` [Example 101, 4-[(1,3-Thiazol-2-ylamino)sulfonyl]-N-{2-[4-(trifluoromethyl)phenyl]ethyl}benzamide], the IC50 was 570 nM.

With `O=C(Nc1ccc2c(n1)CCC2)c1ccc(S(=O)(=O)Nc2nccs2)cc1` [Example 172, N-(6,7-dihydro-5H-cyclopenta[b]pyridin-2-yl)-4-[(1,3-thiazol-2-ylamino)sulfonyl]benzamide], the IC50 is 6520 nM.

`O=C(NCCc1cccc(C(F)(F)F)c1)c1ccc(S(=O)(=O)Nc2nccs2)cc1` [Example 74, 4-[(1,3-Thiazol-2-ylamino)sulfonyl]-N-{2-[3-(trifluoromethyl)phenyl]ethyl}benzamide]: the IC50 is 540 nM.

Take `O=C(NCc1cccs1)c1ccc(S(=O)(=O)Nc2nccs2)cc1` [Example 386, 4-[(1,3-Thiazol-2-ylamino)sulfonyl]-N-(2-thienylmethyl)benzamide]: the IC50 was 3410 nM.

Consider `O=C(NCc1ccc(F)cc1F)c1ccc(S(=O)(=O)Nc2nccs2)cc1` [Example 94, N-(2,4-difluorobenzyl)-4-[(1,3-thiazol-2-ylamino)sulfonyl]benzamide], for which the IC50 is more than 100 nM.

For the molecule `O=C(NCc1ccc(F)cc1C(F)(F)F)c1ccc(S(=O)(=O)Nc2nccs2)cc1` [Example 80, N-[4-fluoro-2-(trifluoromethyl)benzyl]-4-[(1,3-thiazol-2-ylamino)sulfonyl]benzamide], the IC50 is more than 100 nM.

As for `O=C(NCc1cccc(C(F)(F)F)c1)c1ccc(S(=O)(=O)Nc2nccs2)c(F)c1` [Example 302, 3-Fluoro-4-[(1,3-thiazol-2-ylamino)sulfonyl]-N-[3-(trifluoromethyl)benzyl]benzamide], the IC50 was 350 nM.

Consider `Cc1c(Cl)cccc1CNC(=O)c1ccc(S(=O)(=O)Nc2nccs2)cc1` [Example 61, N-(3-chloro-2-methylbenzyl)-4-[(1,3-thiazol-2-ylamino)sulfonyl]benzamide], for which the IC50 is 160 nM.

On to `O=C(NCc1ccc(F)c(C(F)(F)F)c1)c1ccc(S(=O)(=O)Nc2nccs2)c(Cl)c1` [Example 290, 3-Chloro-N-[4-fluoro-3-(trifluoromethyl)benzyl]-4-[(1,3-thiazol-2-yl-amino)sulfonyl]benzamide], for which the IC50 was 1390 nM.

On to `O=C(NCc1ccc(OC(F)(F)F)cc1)c1ccc(S(=O)(=O)Nc2ncc(Cl)s2)c(F)c1` [Example 314, 4-{[(5-Chloro-1,3-thiazol-2-yl)amino]sulfonyl}-3-fluoro-N-[4-(trifluoromethoxy)benzyl]benzamide], for which the IC50 is 70 nM.

`O=C(NCc1ccc(F)c(Cl)c1)c1ccc(S(=O)(=O)Nc2nccs2)cc1F` [Example 332, N-(3-chloro-4-fluorobenzyl)-2-fluoro-4-[(1,3-thiazol-2-ylamino)sulfonyl] benzamide]: the IC50 is 380 nM.

For the molecule `O=C(NCc1ccc(F)c(C2CC2)c1)c1ccc(S(=O)(=O)Nc2nccs2)cc1` [Example 54, N-(3-cyclopropyl-4-fluorobenzyl)-4-[(1,3-thiazol-2-ylamino)sulfonyl]benzamide], the IC50 is 120 nM.

For `CCc1nsc(NS(=O)(=O)c2ccc(C(=O)NCc3ccc(C(F)(F)F)cc3)cc2)n1` [Example 19, 4-{[(3-Ethyl-1,2,4-thiadiazol-5-yl)amino]sulfonyl}-N-[4-(trifluoromethyl)benzyl]benzamide], the IC50 was 13800 nM.

Consider `Cc1ccc(CNC(=O)c2ccc(S(=O)(=O)Nc3nccs3)cc2)cc1F` [Example 62, N-(3-fluoro-4-methylbenzyl)-4-[(1,3-thiazol-2-ylamino)sulfonyl]benzamide], for which the IC50 was 1020 nM.

Take `O=C(NCc1ccc(F)cc1)c1ccc(S(=O)(=O)Nc2nccs2)cc1` [Example 92, N-(4-fluorobenzyl)-4-[(1,3-thiazol-2-ylamino)sulfonyl]benzamide]: the IC50 was 580 nM.

As to `O=C(NCc1ccc(C(F)(F)F)c(F)c1)c1ccc(S(=O)(=O)Nc2ncc(Cl)s2)cc1Cl` [Example 339, 2-Chloro-4-{[(5-chloro-1,3-thiazol-2-yl)amino]sulfonyl}-N-[3-fluoro-4-(trifluoromethyl)benzyl]benzamide], the IC50 was 590 nM.
